Results as given in patent US11246929B2, “Combination of a protein kinase inhibitor and an additional chemotherapeutic agent” (Merck Patent GmbH, priority 2016, dated 2022).
Values joined by “and” are separate entries in the source; they are usually repeats but may differ in a detail not shown here. Equal entries are not always repeated. Where two headings read alike, the source gives them in different places.

Tests used:
[1] = tested on: LoVo colon carcinoma xenografts; assay: Single agent efficacy, ATM pathway deficient LoVo xenograft; format: in vivo, mouse
Source text: We tested the effect of Compound 1 on the growth of established LoVo colon carcinoma xenografts that are known to be deficient in ATM pathway function due to mutation in the MRE11 protein.

FaDu xenograft = format: in vivo
Source text: The standard radiotherapy regimen used in the clinic is a 6-week fractionated treatment schedule (5 fractions of 2 Gy IR per week—60 Gy total).

DNA-PK (p-Ser2056) = target: T1, DNA-PK (p-Ser2056) (Homo sapiens, UniProt P78527); assay: IR-induced DNA-PK phosphorylation in tumor tissue, ELISA, FaDu xenograft; format: in vivo; details: IR 50 Gy
T1 construct: from tissue; host or cells: human tumor xenografts (FaDu, HCT116, WM164) grown in mice
Source text: Following the induction of DSB by radiation therapy or other DNA damaging agents, the catalytic subunit of DNA-PK (DNA-PKc) is autophosphorylated at several serine and threonine residues. Ser2056 is one of the most prominent and best studied autophosphorylation sites. Because Ser2056 phosphorylation (p-Ser2056) correlated well with DNA-PK activation state it was chosen as the pharmacodynamics (PD) biomarker. Two different assay formats were established to measure p-Ser2056 in tumor tissue: ELISA and MSD format. In order to detect sequence reliable signal, IR was used at 50 Gy for the ELISA assay and 10 Gy for the more sensitive MSD assay.

NCI-H460 xenograft = format: in vivo
Source text: The NCI-H460 was chosen as a model relatively insensitive to IR treatment.

[2] = tested on: FaDu (H&N, squamous) xenograft; format: in vivo
Source text: The models were chosen from different cancer indications (colon, lung, head and neck, pancreatic), and histological subtypes (adeno, squamous, large cell). […]
The resulting Kaplan-Meier plots were compared by the log-rank test.

DNA-PK = DNA-PK (Homo sapiens, UniProt P78527); assay: crystallographic and enzyme kinetics studies; format: biochemical
SKNSH = assay: SRB growth inhibition, 93 cell lines panel; details: Homo sapiens, SK-N-SH, read-out: GI50 of etoposide (±Compound 1)
Protocol: (§3) Cell growth and treatment were performed in 96-well microtitre plates CELLSTAR® (Greiner Bio-One, Germany). Cells harvested from exponential phase cultures by trypsinization or by splitting (in the case of cells growing in suspension) were plated in 90 μl of media at optimal seeding densities. The optimal seeding density for each cell line was determined to ensure exponential growth for the duration of the experiment. All cells growing without anticancer agents were sub-confluent by the end of the treatment, as determined by visual inspection. […] The cells were allowed to grow at 37° C. for 72 (or 120) hours. […] Cells were fixed to the surface by addition of 10% TCA (for adherent growing cells) or 50% TCA (for semi-adherent growing cell or cells growing in suspension). After an hour of incubation at 4° C. plates were washed twice with 200 μl of deionized water and dried. Cells were then stained with 100 μl of 0.04% w/v SRB. The plates were incubated at room temperature for at least 30 min and washed six times with 1% acetic acid to remove unbound stain. […] Using these measurements, cellular responses can be calculated for incomplete inhibition of cell growth (GI), complete inhibition of cell growth (TGI) and net loss of cells (LC) due to compound activity. […] TGI was calculated from Ti=Tz.

SNB75 = assay: SRB growth inhibition, 93 cell lines panel; details: Homo sapiens, SNB-75, read-out: GI50 of etoposide (±Compound 1)
Protocol: as §3

JIMT1 = assay: Single agent activity, panel of 81 cancer cell lines plus PBMC; format: cell-based; details: Homo sapiens, JIMT-1
[3] = tested on: mesothelioma (pleura) cell lines; assay: cells; details: read-out: Median etoposide concentration needed to reach GI50
Protocol: (§4) Single agent as well as combination treatment growth inhibition effects were measured by ONCOLEAD.
(§5) Relative area above the dose-response curve (relAOC or AOC) were obtained as the area above the dose-response curve in the dose range between 1E-3M and 1E-10M.

SF268 = assay: SRB growth inhibition, 93 cell lines panel; details: Homo sapiens, SF-268, read-out: GI50 of etoposide (±Compound 1)
Protocol: as §3

CACO2 = assay: cells; details: Homo sapiens, Caco-2, read-out: GI50 of etoposide (±Compound 1)
Protocol: (§6) Cell growth and treatment were performed in 96-well microtitre plates CELLSTAR® (Greiner Bio-One, Germany). Cells harvested from exponential phase cultures by trypsinization or by splitting (in the case of cells growing in suspension) were plated in 90 μl of media at optimal seeding densities. The optimal seeding density for each cell line was determined to ensure exponential growth for the duration of the experiment. All cells growing without anticancer agents were sub-confluent by the end of the treatment, as determined by visual inspection.
(§7) 90 μl of cells, after a 48-hour pre-growth period, were treated by mixing with 10 μl of the compound-containing media (resulting in a final DMSO concentration of 0.1%). The cells were allowed to grow at 37° C. for 72 (or 120) hours.
(§8) Cells were fixed to the surface by addition of 10% TCA (for adherent growing cells) or 50% TCA (for semi-adherent growing cell or cells growing in suspension). After an hour of incubation at 4° C. plates were washed twice with 200 μl of deionized water and dried. Cells were then stained with 100 μl of 0.04% w/v SRB. […]
(§9) Using these measurements, cellular responses can be calculated for incomplete inhibition of cell growth (GI), complete inhibition of cell growth (TGI) and net loss of cells (LC) due to compound activity. […] TGI was calculated from Ti=Tz. […] It was calculated as 100×[(Ti−Tz)/Tz]=−50.

JEG3 = assay: Single agent activity, panel of 81 cancer cell lines plus PBMC; format: cell-based; details: Homo sapiens, JEG-3, lower end of range
1587MG = assay: SRB growth inhibition, 93 cell lines panel; details: read-out: GI50 of etoposide (±Compound 1)
Protocol: as §3

SF295 = assay: SRB growth inhibition, 93 cell lines panel; details: Homo sapiens, SF-295, read-out: GI50 of etoposide (±Compound 1)
Protocol: as §3

COLO678 = assay: Single agent activity, panel of 81 cancer cell lines plus PBMC; format: cell-based; details: Homo sapiens, COLO-678
DLD1 = assay: cells; details: Homo sapiens, DLD-1, read-out: GI50 of etoposide (±Compound 1)
Protocol: as §6, §7, §8, §9

K-562 = assay: SRB growth inhibition, 93 cell lines panel; format: cell-based; details: Homo sapiens, K562; K-562, hematological; read-out: GI50 of etoposide (±Compound 1)
Protocol: (§1) 90 μl of cells, after a 48-hour pre-growth period, were treated by mixing with 10 μl of the compound-containing media (resulting in a final DMSO concentration of 0.1%).
(§2) This is the drug concentration causing a 50% reduction compared to the net protein increase in control cells during the drug incubation period. In other words, G150 is IC50 corrected for time zero. […] TGI was calculated from Ti=Tz. […] It was calculated as 100×[(Ti−Tz)/Tz]=−50.

PLCPRF5 = assay: cells; details: Homo sapiens, PLC-PRF-5, read-out: GI50 of etoposide (±Compound 1)
Protocol: as §1, §2

SKHEP1 = assay: cells; details: Homo sapiens, SK-HEP1, read-out: GI50 of etoposide (±Compound 1)
Protocol: as §1, §2

MT3 = assay: cells; details: MT-3, read-out: GI50 of etoposide (±Compound 1)
Protocol: as §1, §2

HEPG2 = assay: cells; details: Homo sapiens, HepG2, read-out: GI50 of etoposide (±Compound 1)
Protocol: as §1, §2

lung cancer cell lines = assay: cells; details: read-out: Median etoposide concentration needed to reach GI50
Protocol: as §4, §5

COc1ccc([C@@H](O)c2cc(-c3ncnc4cc(N5CCOCC5)ccc34)c(F)cc2Cl)nn1 [Compound 1, (S)-[2-chloro-4-fluoro-5-(7-morpholin-4-yl-quinazolin-4-yl)-phenyl]-(6-methoxy-pyridazin-3-yl)-methanol]
tumor growth suppression ([1]; 150 mg/kg, three weeks): nearly complete growth suppression | tumor growth inhibition ([1]; three week administration): dose-dependent tumor growth inhibition | complete tumor regression, % of the animals (FaDu xenograft; 6 weeks IR (60 Gy total) + 10 mg/kg po, no regrowth during study period (113 days)): 44% | tumor regression (FaDu xenograft; 6 weeks IR (60 Gy total) + 25 and 50 mg/kg po): regressed in all 10 animals | tumor growth in comparison to IR alone (FaDu xenograft; 6 weeks IR (60 Gy total) + Compound 1 po): strong inhibition of tumor growth | tolerability (FaDu xenograft; 6 weeks IR + Compound 1): generally well tolerated | inhibition of IR-induced DNA-PK phosphorylation (Ser2056) (DNA-PK (p-Ser2056)): Dose-dependent inhibition | tumor response (NCI-H460 xenograft; 6 weeks IR (60 Gy total) + Compound 1 25 and 50 mg/kg po): regressed during the treatment and observation period up to approximately day 90 | tumor volume vs starting volume (NCI-H460 xenograft; 6 weeks IR + 50 mg/kg, 42 days of treatment plus 68 days observation): did not exceed their starting volume | tolerability (NCI-H460 xenograft; 6 weeks IR + Compound 1): generally well tolerated | Enhancement Ratio [combi/IR only] ([2]; IR 10 Gy (5 x 2 Gy) + Compound 1 150 mg/kg po): 2.1 | median time to TV400% Combi ([2]; IR 10 Gy (5 x 2 Gy) + Compound 1 150 mg/kg po 10 min prior to each fraction): 46 days | tumor response ([2]; daily 4 Gy (20 Gy total), 100 mg/kg, 92 day observation period): complete response | Enhancement Ratio [combi/IR only] ([2]; total IR 10 Gy, 25 mg/kg po): 1.4 | median time to TV400% Combi ([2]; total IR 10 Gy, 25 mg/kg po): 29.5 days | Enhancement Ratio [combi/IR only] ([2]; total IR 10 Gy, 100 mg/kg po): 1.9 | median time to TV400% Combi ([2]; total IR 10 Gy, 100 mg/kg po): 40 days | median time to TV400% Combi ([2]; total IR 10 Gy, 300 mg/kg po): >63 days | CR (complete response) ([2]; total IR 10 Gy, 300 mg/kg po, d 63): 60% CR | Enhancement Ratio [combi/IR only] ([2]; total IR 20 Gy, 5 mg/kg po): 0.9 | median time to TV400% Combi ([2]; total IR 20 Gy, 5 mg/kg po): 43 days | Enhancement Ratio [combi/IR only] ([2]; total IR 20 Gy, 10 mg/kg po): 1.13 | median time to TV400% Combi ([2]; total IR 20 Gy, 10 mg/kg po): 56.5 days | median time to TV400% Combi ([2]; total IR 20 Gy, 100 mg/kg po): >94 days | CR (complete response) ([2]; total IR 20 Gy, 100 mg/kg po, d 94): 100% CR | Enhancement Ratio [combi/IR only] ([2]; total IR 30 Gy (6 Gy daily), 10 mg/kg po, 10 mg/kg): 2 and 1.9 | Enhancement Ratio [combi/IR only] ([2]; total IR 30 Gy, 5 mg/kg po): 1.4 | median time to TV400% Combi ([2]; total IR 30 Gy, 5 mg/kg po): 69 days | median time to TV400% Combi ([2]; total IR 30 Gy, 10 mg/kg po): 94 days | tolerability ([2]; total IR 30 Gy, 100 mg/kg po): not tolerated | inhibition of DNA-PK, mode (DNA-PK): potent and selective ATP-competitive inhibitor

COc1cc([C@@H]2c3cc4c(cc3[C@@H](O[C@@H]3O[C@@H]5CO[C@@H](C)O[C@H]5[C@H](O)[C@H]3O)[C@H]3COC(=O)[C@H]23)OCO4)cc(OC)c1O [Etoposide]
GI50 (SKNSH): 0.265 µM | GI50 (SNB75): 3.79 µM | GI50 (JIMT1): > 10 µM | GI50 [3]: 1 µM | GI50 (SF268): 1.97 µM | GI50 (CACO2): 3.65 µM | GI50 (JEG3): 0.03 µM | GI50 (1587MG): 2.4 µM | GI50 (SF295): 1.16 µM | GI50 (COLO678): > 10 µM | GI50 (DLD1): 1.35 µM | GI50 (K-562): 0.277 µM | GI50 (PLCPRF5): 6.25 µM | GI50 (SKHEP1): 0.083 µM | GI50 (MT3): 0.609 µM | GI50 (HEPG2): 0.806 µM | GI50 (lung cancer cell lines): 0.32 µM
